Key:
Experiment in all cases: relative viability (nuclei count vs DMSO), 5 days (fraction); higher = more cells survive
Avagacestat + Luminespib = compound: NC(=O)[C@@H](CCC(F)(F)F)N(Cc1ccc(-c2ncon2)cc1F)S(=O)(=O)c1ccc(Cl)cc1 [Avagacestat] + CCNC(=O)c1noc(-c2cc(C(C)C)c(O)cc2O)c1-c1ccc(CN2CCOCC2)cc1 [Luminespib] (partner 0.01 µM)
Method in brief: (§1)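 Relative viability was taken as the ratio of nuclei in treated wells to nuclei in vehicle wells. Lung cancer cell lines in 1536-well plates received compounds by pin tool one day after seeding, either one drug alone or a fixed anchor-drug dose plus five library-drug doses (not always all listed) in √10 steps. Nuclei were counted on 4× images after 5 days of treatment, and values are medians of duplicate plates.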

Avagacestat + Lapatinib = compound: NC(=O)[C@@H](CCC(F)(F)F)N(Cc1ccc(-c2ncon2)cc1F)S(=O)(=O)c1ccc(Cl)cc1 [Avagacestat] + CS(=O)(=O)CCNCc1ccc(-c2ccc3ncnc(Nc4ccc(OCc5cccc(F)c5)c(Cl)c4)c3c2)o1 [Lapatinib] (partner 2 µM)
Method in brief: as §1

Avagacestat + Decitabine = compound: NC(=O)[C@@H](CCC(F)(F)F)N(Cc1ccc(-c2ncon2)cc1F)S(=O)(=O)c1ccc(Cl)cc1 [Avagacestat] + Nc1ncn([C@H]2C[C@H](O)[C@@H](CO)O2)c(=O)n1 [Decitabine] (partner 2 µM)
Method in brief: as §1

Avagacestat + Olaparib = compound: NC(=O)[C@@H](CCC(F)(F)F)N(Cc1ccc(-c2ncon2)cc1F)S(=O)(=O)c1ccc(Cl)cc1 [Avagacestat] + O=C(c1cc(Cc2n[nH]c(=O)c3ccccc23)ccc1F)N1CCN(C(=O)C2CC2)CC1 [Olaparib] (partner 8 µM)
Method in brief: as §1

Row | Cell Line | relative viability (Avagacestat + Luminespib; first compound 0.08 µM) | relative viability (Avagacestat + Luminespib; first compound 0.253 µM) | relative viability (Avagacestat + Luminespib; first compound 0.8 µM) | relative viability (Avagacestat + Luminespib; first compound 2.53 µM) | relative viability (Avagacestat + Luminespib; first compound 8 µM) | relative viability (Avagacestat + Lapatinib; first compound 0.08 µM) | relative viability (Avagacestat + Lapatinib; first compound 0.253 µM) | relative viability (Avagacestat + Lapatinib; first compound 0.8 µM) | relative viability (Avagacestat + Lapatinib; first compound 2.53 µM) | relative viability (Avagacestat + Lapatinib; first compound 8 µM) | relative viability (Avagacestat + Decitabine; first compound 0.08 µM) | relative viability (Avagacestat + Decitabine; first compound 0.253 µM) | relative viability (Avagacestat + Decitabine; first compound 0.8 µM) | relative viability (Avagacestat + Decitabine; first compound 2.53 µM) | relative viability (Avagacestat + Decitabine; first compound 8 µM) | relative viability (Avagacestat + Olaparib; first compound 0.08 µM) | relative viability (Avagacestat + Olaparib; first compound 0.253 µM) | relative viability (Avagacestat + Olaparib; first compound 0.8 µM) | relative viability (Avagacestat + Olaparib; first compound 2.53 µM) | relative viability (Avagacestat + Olaparib; first compound 8 µM)
1 | NCI-H358 | 0.449 | 0.467 | 0.368 | 0.412 | 0.244 | 0.418 | 0.438 | 0.571 | 0.469 | 0.427 | 0.251 | 0.264 | 0.19 | 0.212 | 0.219 | 0.704 | 0.559 | 0.655 | 0.596 | 0.562
2 | NCI-H1650 | 0.222 | 0.203 | 0.212 | 0.202 | 0.193 | 1.02 | 0.825 | 0.695 | 0.884 | 0.853 | 0.432 | 0.558 | 0.457 | 0.432 | 0.416 | 0.961 | 0.893 | 0.86 | 0.917 | 0.936
3 | NCI-H1975 | 0.216 | 0.164 | 0.207 | 0.182 | 0.154 | 0.852 | 1.1 | 1.03 | 0.935 | 0.859 | 0.371 | 0.355 | 0.425 | 0.341 | 0.412 | 1.03 | 1.04 | 0.94 | 0.814 | 0.665
4 | SW 1573 | 0.341 | 0.257 | 0.218 | 0.196 | 0.214 | 1.19 | 1.21 | 0.982 | 1.1 | 1.09 | 0.539 | 0.582 | 0.664 | 0.446 | 0.59 | 0.643 | 0.572 | 0.465 | 0.472 | 0.47
5 | LU99A | 0.308 | 0.199 | 0.305 | 0.247 | 0.213 | 1.01 | 1.2 | 1.25 | 1.06 | 1.1 | 0.835 | 0.98 | 0.964 | 0.772 | 0.816 | 0.254 | 0.259 | 0.269 | 0.265 | 0.243
6 | NCI-H2405 | 0.638 | 0.856 | 0.58 | 0.665 | 0.466 | 1.02 | 1.12 | 1.21 | 0.958 | 1 | 0.758 | 0.703 | 0.692 | 0.673 | 0.684 | 0.976 | 0.911 | 0.978 | 0.778 | 0.826
7 | HOP-62 | 0.988 | 1.09 | 1.01 | 0.889 | 0.83 | 1.02 | 0.943 | 0.983 | 0.996 | 1.01 | 0.211 | 0.229 | 0.194 | 0.221 | 0.218 | 0.411 | 0.502 | 0.211 | 0.564 | 0.371
8 | NCI-H322M | 0.862 | 0.875 | 0.927 | 0.695 | 0.638 | 0.556 | 0.555 | 0.601 | 0.504 | 0.432 | 0.736 | 0.626 | 0.729 | 0.629 | 0.611 | 0.827 | 0.774 | 0.783 | 0.685 | 0.668
